Where two headings read alike, the source gives them in different places.
What was measured:
[1] = Method: This was an adaptive Phase Ib/2 trial design. It was a randomized, double-blind, placebo-controlled, multiple ascending dose study assessing efficacy, pharmacokinetics, safety and tolerability of dexmedetomidine hydrochloride dosing in adult (65 years old and older) males and females with acute agitation associated with dementia.
The drug film was retained in the sublingual cavity until dissolved. Participants were also evaluated for local irritation around the area where the film was placed. Efficacy and safety assessments were conducted periodically before and after dosing. The next cohort was dosed after completing accrual of most prior panels, in accord with regular ongoing periodic safety and PK review as eligible subjects were assigned, dosed, and data became available.
Blood samples (4 mL) were collected at 0.5, 1, 2, 4, 8- and 24-hours post-dose per Schedule of Events (Table 9A).
All pharmacokinetic parameters were calculated using non-compartmental analysis using WinNonlin. Actual sampling times were used in all pharmacokinetic analyses. […] Other PK analyses might be performed as appropriate.
Plasma samples were collected at 0.5, 1, 2, (2.5 in re-dose subjects), 4 and 8 hr.

[2] = system: opioid withdrawal symptoms
Method: (§1) • COWS and SOWS scores during Days 6-12. COWS and SOWS scores on Days 6-12 were analyzed using a mixed-effects, repeated-measures model. […] Kaplan-Meier estimates were used to generate survival curves for each treatment group. […] Differences in mean agitation and sedation were compared between the treatment groups using the same mixed-effects, repeated-measures model described above.

opioid withdrawal = system: opioid withdrawal
Method: as §1
Kaplan-Meier estimates were also used to generate survival curves over time in each treatment group. Logistic regression model was used to compare the dexmedetomidine hydrochloride oromucosal film and placebo groups on the numbers of subjects dropping out after opioid discontinuation.

[3] = remark: listed apart in the source
Method: Blood samples (4 ml) were collected for pharmacokinetic analysis on inpatient Study Days 6 and 12 at 0, 2, 6, and 12 hours after the first dose of dexmedetomidine hydrochloride oromucosal film on Study Days 6 and 12.
Plasma concentration data for dexmedetomidine were analyzed by a popPK approach and reported separately. The plasma concentration data from this study were combined with PK data from other studies to develop the population PK model. The model was used to estimate exposure measures in subjects in this study through a modeling and simulation approach. • Interim data: The demographic data and baseline characteristics are given in Table 15C.

[4] = system: elderly dementia patients
Method: AEs, clinical laboratory tests, 12-lead ECG, Johns Hopkins Fall Risk Assessment score, and vital signs were monitored, and all observed and volunteered AEs were recorded. Blood pressure, heart rate and ECG were completed per schedule of assessments. Any abnormal clinically significant (investigator determined) vital sign measurement, clinical laboratory test, physical examination finding, or ECG parameter were repeated, until the value returned to baseline (or within normal limits) or the investigator deemed the abnormality to be of no clinical significance. Orthostatic assessments followed the CDC guidelines for the elderly (e.g. blood pressure upon standing for 1, 3 and 5 minutes). Safety and tolerability assessments were continued until the morning of Day 2 and Day 3 and were repeated on Day 7=2 days.
Safety was assessed during the study by the monitoring and recording of AEs, clinical laboratory test results (hematology, biochemistry, and urinalysis), vital sign measurements (systolic and diastolic blood pressures, heart rate measured as pulse, respiratory rate, and temperature), ECG, and physical examination findings.
Adverse events (AEs) were characterized by type, severity, seriousness, and relationship to treatment. Adverse events were coded by preferred term and system organ class using MedDRA version 20.0.

[5] = system: subjects undergoing opioid withdrawal; conditions: Fishman et al. 2019, cited from earlier work

| SMILES | exposure levels in elderly dementia patients vs schizophrenia patients ([1]; Table 9E) | AUC higher in dementia patients than in schizophrenia (and bipolar disorder) patients ([1]; same dose) | Cmax higher in dementia patients than in schizophrenia (and bipolar disorder) patients ([1]; same dose) | subjective rating of insomnia on SOWS scale ([2]; Day 7, about 240 μg twice daily) | ratings of anxiety or irritability on COWS scale ([2]; Day 8, about 240 μg twice daily) | retention rate (opioid withdrawal; Day 6, 120 μg dose) | retention rate (opioid withdrawal; Day 6, 180 μg dose) | plasma concentration as dose increased ([3]; 30 μg to 240 μg, days 6 and 12) | mean plasma concentrations between 2-hour and 12-hour timepoints ([3]; all doses) | consequences of doses higher than about 90 μg [4] | Adverse Event Bradycardia ([5]; 2.16 mg (N = 229)) | Adverse Event Dizziness ([5]; 2.16 mg (N = 229)) | Adverse Event Orthostatic hypotension ([5]; 2.16 mg (N = 229)) | Adverse Event Somnolence ([5]; 2.16 mg (N = 229)) | Adverse Event Bradycardia ([5]; 2.88 mg (N = 229)) | Adverse Event Dizziness ([5]; 2.88 mg (N = 229)) | Adverse Event Orthostatic hypotension ([5]; 2.88 mg (N = 229)) | Adverse Event Somnolence ([5]; 2.88 mg (N = 229)) |
| --- | --- | --- | --- | --- | --- | --- | --- | --- | --- | --- | --- | --- | --- | --- | --- | --- | --- | --- |
| Cc1cccc([C@H](C)c2cnc[nH]2)c1C [dexmedetomidine, (+) 4-(S)-[1-(2,3-dimethylphenyl)ethyl]-1H-imidazole] | higher exposure levels | about 55% | about 38% | significant reduction | significant reduction | at least 40% | at least 50% | dose dependent increases | declined over time | negative consequences | – | – | – | – | – | – | – | – |
| CC(Oc1c(Cl)cccc1Cl)C1=NCCN1 (stereo not drawn) [lofexidine] | – | – | – | – | – | – | – | – | – | – | 54 (24) n (%) | 44 (19) n (%) | 67 (29) n (%) | 25 (10.9) n (%) | 70 (32) n (%) | 51 (23.0) n (%) | 94 (42) n (%) | 29 (13.1) n (%) |
